Measured values: patent US6004965A, “Sulfonamides” (Hoffmann-La Roche Inc., priority 1994, dated 1999)

Experiments:
human ETA receptors = target: T1, human ETA receptors (Homo sapiens, UniProt P25101); assay: Inhibition of endothelin binding to recombinant ETA receptors; details: baculovirus-insect cell membranes, 20 pM 125I-endothelin, 20° C. for 2 hours or 4° C. for 24 hours, read-out: IC50 (inhibition of specific binding of 125I-endothelin)
T1 construct: made in house; host or cells: baculovirus-infected insect cells (membrane preparation)
T1 sequence (P25101 21-427): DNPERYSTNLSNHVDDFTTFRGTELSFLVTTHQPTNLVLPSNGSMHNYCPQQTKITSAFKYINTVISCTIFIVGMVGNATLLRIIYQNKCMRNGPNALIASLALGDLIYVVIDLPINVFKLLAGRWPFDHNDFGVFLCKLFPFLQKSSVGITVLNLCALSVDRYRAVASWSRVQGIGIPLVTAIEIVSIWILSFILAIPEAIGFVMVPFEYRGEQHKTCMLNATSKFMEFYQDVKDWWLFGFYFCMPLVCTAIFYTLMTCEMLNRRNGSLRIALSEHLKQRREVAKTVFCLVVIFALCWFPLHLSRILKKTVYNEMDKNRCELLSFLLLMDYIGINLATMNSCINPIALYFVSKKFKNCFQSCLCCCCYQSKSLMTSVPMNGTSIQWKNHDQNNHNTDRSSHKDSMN
Protocol: I: […] A cDNA coding for human ETA receptors of human placenta was cloned ([…]. Yang, Y. Furuichi and C. Miyamoto, BBRC 180, 1265-1272) and expressed in the baculovirus-insect cell system. Baculovirus-infected insect cells from a 23 l fermenter are centrifuged off (3000×g, 15 minutes, 4° C.) 60 hours after the infection, re-suspended in Tris buffer (5 mM, pH 7.4, 1 mM MgCl2) and again centrifuged. After a further re-suspension and centrifugation the cells are suspended in 800 ml of the same buffer and […] at -120° C. The cells disintegrate when the suspension in this hypotonic buffer mixture is thawed. After a repeated freeze-drying/thawing cycle the suspension is homogenized and centrifuged (25000×g, 15 minutes, 4° C.). After suspension in Tris buffer (75 mM, pH 7.4, 25 mM MgCl2, 250 mM sucrose) 1 ml aliquots (protein content about 3.5 mg/ml) are stored at -85° C. […] The incubation is carried out at 20° C. for 2 hours or at 4° C. for 24 hours. The separation of free and membrane-bound radio-ligands is carried out by filtration over a glass fibre filter.

[1] = target: T2, endothelin-induced contractions in isolated rat aorta rings (Rattus norvegicus, UniProt P26684); assay: Inhibition of endothelin-induced contractions in isolated rat aorta rings; format: cell-based, rat (Wistar-Kyoto); details: read-out: pA2 value; Dose ratio (switch to the right) (converted)
T2 construct: cut out from the thorax aorta of adult Wistar-Kyoto rats; from tissue; host or cells: thoracic aorta rings of adult Wistar-Kyoto rats, endothelium removed
T2 sequence (P26684 21-426): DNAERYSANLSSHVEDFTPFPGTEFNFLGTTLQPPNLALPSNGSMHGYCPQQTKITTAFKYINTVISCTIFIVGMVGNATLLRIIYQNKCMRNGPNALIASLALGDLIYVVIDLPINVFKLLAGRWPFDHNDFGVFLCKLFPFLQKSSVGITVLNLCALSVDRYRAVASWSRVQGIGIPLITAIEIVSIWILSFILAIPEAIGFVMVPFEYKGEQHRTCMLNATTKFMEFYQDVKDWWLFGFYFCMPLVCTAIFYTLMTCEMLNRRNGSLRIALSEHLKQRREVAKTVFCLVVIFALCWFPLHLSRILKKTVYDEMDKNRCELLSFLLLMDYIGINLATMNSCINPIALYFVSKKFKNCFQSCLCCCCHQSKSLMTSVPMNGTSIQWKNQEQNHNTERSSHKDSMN
Protocol: Rings with a length of 5 mm were cut out from the thorax aorta of adult Wistar-Kyoto rats. The endothelium was removed by lightly rubbing the internal surface. Each ring was immersed at 37° C. in 10 ml of Krebs-Henseleit solution in an isolated bath while gassing with 95% O2 and 5% CO2. The isometric stretching of the rings was measured. The rings were stretched to a pre-tension of 3 g.
The corresponding pA2 value, which is a measure of the activity of the test compound, was calculated using a computer programme according to the following equation from the "dose ratio" DR for each individual dosage-activity curve.
pA2 =log(DR-1)-log(antagonist-concentration)

| SMILES | IC50 (human ETA receptors) [pM] | Kb [1] [pM] |
| --- | --- | --- |
| COc1ccccc1Oc1c(NS(=O)(=O)c2ccc(C(C)(C)C)cc2)nc(-c2ccnc(-c3nnn[nH]3)c2)nc1OCCOC(=O)Nc1ccccn1 [Example 4, 2-[6-(4-tert-butyl-phenylsulphonylamino)-5-(2-methoxy-phenoxy)-2-(2-1H-tetrazol-5-yl-pyridin-4-yl)-pyrimidin-4-yl-oxy]-ethyl pyridin-2-ylcarbamate] | 6000 | 251 |
| COc1ccccc1Oc1c(NS(=O)(=O)c2ccc(C)cn2)nc(-c2ccnc(-c3nnn[nH]3)c2)nc1OCCO [Example 29, 5-methyl-pyridine-2-sulphonic acid 6-(2-hydroxy-ethoxy)-5-(2-methoxy-phenoxy)-2-(2-1H-tetrazol-5-yl-pyridin-4-yl)-pyrimidin-4-ylamide] | 4000 | 100 |
| COc1ccccc1Oc1c(NS(=O)(=O)c2ccc(SC)cc2)nc(-c2ccnc(-c3nnn[nH]3)c2)nc1OCCOC(=O)Nc1ccccn1 [Example 40, 2-[5-(2-methoxy-phenoxy)-6-(4-methylsulphanylphenylsulphonylamino)-2-(2-1H-tetrazol-5-yl-pyridin-4-yl)-pyrimidin-4-yloxy]-ethyl pyridin-2-ylcarbamate] | 8000 | 63.1 |
| COc1ccccc1Oc1c(NS(=O)(=O)c2ccc3c(c2)OCO3)nc(-c2ccnc(-c3nnn[nH]3)c2)nc1OCCOC(=O)Nc1ccccn1 [Example 41, 2-[6-(1,3-benzodioxol-5-yl-sulphonylamino)-5-(2-methoxy-phenoxy)-2-(2-1H-tetrazol-5-yl-pyridin-4-yl)-pyrimidin-4-yloxy]-ethyl pyridin-2-ylcarbamate] | 1000 | 25.1 |

Next, values leading:

| IC50 (human ETA receptors) [pM] | Kb [1] [pM] | SMILES |
| --- | --- | --- |
| 2000 | 316 | COc1ccccc1Oc1c(NS(=O)(=O)c2ccccc2)nc(-c2ccnc(-c3nnn[nH]3)c2)nc1OCCOC(=O)Nc1ccccn1 [Example 35, 2-[5-(2-methoxy-phenoxy)-6-phenyl-sulphonylamino-2-(2-1H-tetrazol-5-yl-pyridin-4-yl)-pyrimidin-4-yloxy]-ethyl pyridin-2-ylcarbamate] |
| 8000 | 398 | COc1ccccc1Oc1c(NS(=O)(=O)c2ccc(C)cc2)nc(-c2ccnc(-c3nnn[nH]3)c2)nc1OCCOC(=O)Nc1ccccn1 [Example 36, 2-[5-(2-methoxy-phenoxy)-6-(4-methyl-phenylsulphonylamino)-2-(2-1H-tetrazol-5-yl-pyridin-4-yl)-pyrimidin-4-yloxy]-ethyl pyridin-2-ylcarbamate] |
